# From US12637432B2, “Inhibitors of ACK1/TNK2 tyrosine kinase” (H. LEE MOFFITT CANCER CENTER AND RESEARCH INSTITUTE, INC., priority 2020, dated 2026)
# Assays:
# MDA-MB-231 = test: Cell viability (MDA-MB-231); format: cell-based; conditions: Homo sapiens
# UKE1 = test: Cell viability (UKE1); format: cell-based
# ACK1 [1] = target: T1, ACK1 (Homo sapiens, UniProt Q07912); test: Reaction Biology 33P Hotspot assay; format: biochemical
# T1 construct: purchased Reaction Biology
# [2] = test system: castration and radioresistant prostate xenograft tumor; conditions: in vivo; cited from earlier work
# AKT Tyr176 = conditions: pancreatic cancer cells; cited from earlier work
# AR Tyr267 = conditions: cited from earlier work
# [3] = attributed to oxidation of dithiolane ring and NMe2; cited from earlier work
# ACK1 [4] = target: T1, ACK1; test: ACK1 IC50 (Table 1, assay not specified); format: biochemical
# T1 sequence (Q07912 whole entry): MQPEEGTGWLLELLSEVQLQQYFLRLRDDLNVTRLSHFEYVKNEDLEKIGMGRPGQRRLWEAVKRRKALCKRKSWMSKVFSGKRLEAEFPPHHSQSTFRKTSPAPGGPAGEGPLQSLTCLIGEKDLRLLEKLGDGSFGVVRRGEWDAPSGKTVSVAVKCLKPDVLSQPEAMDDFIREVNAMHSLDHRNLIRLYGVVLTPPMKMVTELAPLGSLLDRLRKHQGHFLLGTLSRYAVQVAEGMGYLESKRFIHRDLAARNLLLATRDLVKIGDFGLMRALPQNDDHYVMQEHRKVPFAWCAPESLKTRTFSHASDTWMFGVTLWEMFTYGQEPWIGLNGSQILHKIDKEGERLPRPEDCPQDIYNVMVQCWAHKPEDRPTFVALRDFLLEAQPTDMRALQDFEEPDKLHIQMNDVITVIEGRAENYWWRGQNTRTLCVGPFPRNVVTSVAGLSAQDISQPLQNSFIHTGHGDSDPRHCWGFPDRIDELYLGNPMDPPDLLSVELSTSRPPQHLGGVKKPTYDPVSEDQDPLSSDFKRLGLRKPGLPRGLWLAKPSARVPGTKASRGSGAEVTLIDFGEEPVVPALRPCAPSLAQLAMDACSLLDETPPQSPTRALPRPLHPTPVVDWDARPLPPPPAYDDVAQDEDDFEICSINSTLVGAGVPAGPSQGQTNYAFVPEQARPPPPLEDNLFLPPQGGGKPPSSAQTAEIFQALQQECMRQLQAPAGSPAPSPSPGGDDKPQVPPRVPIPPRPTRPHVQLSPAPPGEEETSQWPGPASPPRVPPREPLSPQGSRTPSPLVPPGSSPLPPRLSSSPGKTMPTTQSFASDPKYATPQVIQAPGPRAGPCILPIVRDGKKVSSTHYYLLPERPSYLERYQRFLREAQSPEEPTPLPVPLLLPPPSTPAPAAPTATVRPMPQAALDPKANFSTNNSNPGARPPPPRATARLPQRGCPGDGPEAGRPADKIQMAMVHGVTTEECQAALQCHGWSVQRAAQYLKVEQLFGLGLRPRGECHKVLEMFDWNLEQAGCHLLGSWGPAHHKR
smiles,measurement,setting,value
"Cn1cc(-c2ccc(Nc3ncc(Cl)c(NCC4CCOCC4)n3)cc2)cn1 [5-chloro-N^2-(4-(1-methyl-1H-pyrazol-4-yl)phenyl)-N^4-((tetrahydro-2H-pyran-4-yl)methyl)pyrimidine-2,4-diamine]",EC50,MDA-MB-231,7.72 µM
same,EC50,UKE1,6.7 µM
same,IC50,ACK1 [1],29.1 nM
c1ccc(-c2oc3ncnc(NC[C@@H]4CCCO4)c3c2-c2ccccc2)cc1 [Compound 1b],castration and radioresistant prostate xenograft tumor growth,[2],inhibits
same,ACK1 dependent AKT Tyr176 phosphorylation,AKT Tyr176,inhibits
same,AR Tyr267 phosphorylation,AR Tyr267,inhibits
CN(C)CCOc1ccc(-c2oc3ncnc(NCC4SCCS4)c3c2-c2ccccc2)cc1 [Compound 1c],pharmacokinetic properties,[3],poor pharmacokinetic properties
"O=C(COc1cccc2c1C(=O)N(C1CCC(=O)NC1=O)C2=O)NCCCCN1CCN(c2ccc(Nc3ncc(Cl)c(NC[C@H]4CCCO4)n3)cc2)CC1 (stereo partly drawn) [N-(4-(4-(4-((5-chloro-4-((((R)-tetrahydrofuran-2-yl)methyl)amino)pyrimidin-2-yl)amino)phenyl)piperazin-1-yl)butyl)-2-((2-(2,6-dioxopiperidin-3-yl)-1,3-dioxoisoindolin-4-yl)oxy)acetamide]",IC50,ACK1 [4],0.0564 µM
